Each structure is given as a SMILES string.

beta (ERβ) estrogen receptor, sequence (Q62986 whole entry): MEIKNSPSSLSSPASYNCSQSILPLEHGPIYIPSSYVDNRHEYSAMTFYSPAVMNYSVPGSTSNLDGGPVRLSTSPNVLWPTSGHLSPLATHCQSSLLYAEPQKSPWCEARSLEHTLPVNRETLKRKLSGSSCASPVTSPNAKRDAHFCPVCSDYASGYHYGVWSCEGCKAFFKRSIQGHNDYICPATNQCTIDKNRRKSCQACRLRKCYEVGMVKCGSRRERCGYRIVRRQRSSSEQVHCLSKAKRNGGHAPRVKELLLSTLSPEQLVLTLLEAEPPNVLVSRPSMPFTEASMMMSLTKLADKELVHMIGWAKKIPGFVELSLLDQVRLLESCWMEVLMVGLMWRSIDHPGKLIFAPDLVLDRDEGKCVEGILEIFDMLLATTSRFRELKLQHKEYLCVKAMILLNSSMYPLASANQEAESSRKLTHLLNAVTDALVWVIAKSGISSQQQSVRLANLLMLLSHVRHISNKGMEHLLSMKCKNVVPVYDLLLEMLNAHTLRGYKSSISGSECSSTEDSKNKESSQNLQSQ

The first experiment addresses beta (ERβ) estrogen receptor (Rattus norvegicus, UniProt Q62986).
Test: not given
The note with it: cited from earlier work.
With `C[C@]12CC[C@@H](O)C[C@@H]1CC[C@@H]1[C@@H]2CC[C@]2(C)[C@@H](O)CC[C@@H]12` [3α-Androstanediol, 5α-Androstane-3α,17β-diol], the “Log-(RBA) beta” value is given as −0.52.

On to `C[C@]12CC[C@H](O)C[C@@H]1CC[C@@H]1[C@@H]2CC[C@]2(C)[C@@H](O)CC[C@@H]12` [3β-Androstanediol, 5α-Androstane-3β,17β-diol], for which the “Log-(RBA) beta” value was 0.85.

For `C[C@]12CC[C@H](O)CC1=CC[C@@H]1[C@@H]2CC[C@]2(C)C(=O)CC[C@@H]12` [Dehydroepiandroster-one], the “Log-(RBA) beta” value is −1.15.

With `COc1ccc(C(c2ccc(OC)cc2)C(Cl)(Cl)Cl)cc1` [Methoxychlor], the “Log-(RBA) beta” value is reported as −0.89.

In the case of `C[C@]12CC[C@H]3[C@@H](CCC4=CC(=O)CC[C@@H]43)[C@@H]1CC[C@@H]2O` [Nandrolone], the “Log-(RBA) beta” value was −0.64.

Regarding `C[C@]12CC[C@H]3[C@@H](CCC4=CC(=O)CC[C@@]43C)[C@@H]1CC[C@@H]2O` [Testosterone], the “Log-(RBA) beta” value is −2.10.

The same experiment, now with this note: log of relative binding affinity, 17-β-estradiol RBA = 100; cited from earlier work.
For `C[C@]12CC[C@@H]3c4ccc(O)c(O)c4CC[C@H]3[C@@H]1CC[C@@H]2O` [4-OH-Estradiol, 4-hydroxy-estradiol], the “Log-(RBA) beta” value was 0.85.

Consider `CC(C)(c1ccc(O)cc1)c1ccc(O)cc1` [Bisphenol A, 4,4′-isopropylidenediphenol], for which the “Log-(RBA) beta” value was −0.48.

As to `C/C=C(/C(=C/C)c1ccc(O)cc1)c1ccc(O)cc1` [Dienestrol], the “Log-(RBA) beta” value is listed as 2.61.

Consider `CC[C@H](c1ccc(O)cc1)[C@@H](CC)c1ccc(O)cc1` [Hexestrol], for which the “Log-(RBA) beta” value is 2.37.

As for `C#C[C@]1(O)CC[C@H]2[C@@H]3CCc4cc(O)ccc4[C@H]3[C@@H](OC)C[C@@]21C` [Moxestrol], the “Log-(RBA) beta” value is on record as 0.70.

Regarding `CC(=O)[C@H]1CC[C@H]2[C@@H]3CCC4=CC(=O)CC[C@]4(C)[C@H]3CC[C@]12C` [Progesterone], the “Log-(RBA) beta” value is reported as −3.50.

The test system of a further experiment is estrogen receptor. Description: estrogen receptor relative binding affinity, expanded training set of 107 compounds. The note with it: input class, 107-compound training set. The text has this: The training set included weak estrogen receptor binders in addition to strong and medium estrogen receptor binders.
For this model, strong estrogen receptor binders were defined as having log(RBA)>−0.25 and weak estrogen receptor binders were defined as having log(RBA)<−3.0. Medium estrogen receptor binders were defined as having log(RBA) in between.
As for `C[C@]12CC[C@@H](O)C[C@@H]1CC[C@@H]1[C@@H]2CC[C@]2(C)[C@@H](O)CC[C@@H]12` [3α-Androstanediol, 5α-Androstane-3α,17β-diol], the Class result is “M (Medium estrogen receptor binders were defined as having log(RBA) in between)”.

For `C[C@]12CC[C@H](O)C[C@@H]1CC[C@@H]1[C@@H]2CC[C@]2(C)[C@@H](O)CC[C@@H]12` [3β-Androstanediol, 5α-Androstane-3β,17β-diol], the Class entry is “M (Medium estrogen receptor binders were defined as having log(RBA) in between)”.

Regarding `C[C@]12CC[C@@H]3c4ccc(O)c(O)c4CC[C@H]3[C@@H]1CC[C@@H]2O` [4-OH-Estradiol, 4-hydroxy-estradiol], the Class result was “S (strong estrogen receptor binders were defined as having log(RBA)>−0.25)”.

Regarding `CC(C)(c1ccc(O)cc1)c1ccc(O)cc1` [Bisphenol A, 4,4′-isopropylidenediphenol], the Class entry is on record as “M (Medium estrogen receptor binders were defined as having log(RBA) in between)”.

Turning to `C/C=C(/C(=C/C)c1ccc(O)cc1)c1ccc(O)cc1` [Dienestrol], the Class result was “S (strong estrogen receptor binders were defined as having log(RBA)>−0.25)”.

`CC[C@H](c1ccc(O)cc1)[C@@H](CC)c1ccc(O)cc1` [Hexestrol]: the Class entry was “S (strong estrogen receptor binders were defined as having log(RBA)>−0.25)”.

`C#C[C@]1(O)CC[C@H]2[C@@H]3CCc4cc(O)ccc4[C@H]3[C@@H](OC)C[C@@]21C` [Moxestrol]: the Class result is reported as “S (strong estrogen receptor binders were defined as having log(RBA)>−0.25)”.

With `CC(=O)[C@H]1CC[C@H]2[C@@H]3CCC4=CC(=O)CC[C@]4(C)[C@H]3CC[C@]12C` [Progesterone], the Class entry is on record as “W (weak estrogen receptor binders were defined as having log(RBA)<−3.0)”.

The next experiment deals with estrogen receptor. Description: estrogen receptor binding class of the 30-compound training set.
Details: not given
The text has this: Two Spectral Data-Activity Relationship (SDAR) models were established, based on ^13C NMR and EI MS spectra, for 30 estrogenic chemicals whose relative binding affinities (RBA) for the alpha (ERα) and beta (ERβ) estrogen receptors are available.
Strong binders to the estrogen receptor were classified as having a log (RBA) over 0.0, and medium binders to the estrogen receptor were classified as having a log (RBA) of less than or equal to 0.0.
For `C[C@]12CC[C@@H](O)C[C@@H]1CC[C@@H]1[C@@H]2CC[C@]2(C)[C@@H](O)CC[C@@H]12` [3α-Androstanediol, 5α-Androstane-3α,17β-diol], the “RBA class in words” value is given as “medium”.

As for `C[C@]12CC[C@H](O)C[C@@H]1CC[C@@H]1[C@@H]2CC[C@]2(C)[C@@H](O)CC[C@@H]12` [3β-Androstanediol, 5α-Androstane-3β,17β-diol], the “Class Input” value is on record as “S (key: Strong binders to the estrogen receptor were classified as having a log (RBA) over 0.0; M: medium binders to the estrogen receptor were classified as having a log (RBA) of less than or equal to 0.0)”.

The same experiment, now with this note: SDAR training input endpoint class, 30 compounds.
As for `C[C@]12CC[C@@H](O)C[C@@H]1CC[C@@H]1[C@@H]2CC[C@]2(C)[C@@H](O)CC[C@@H]12` [3α-Androstanediol, 5α-Androstane-3α,17β-diol], the “Class Input” value is “M (medium binders to the estrogen receptor were classified as having a log (RBA) of less than or equal to 0.0)”.

Take `C[C@]12CC[C@@H]3c4ccc(O)c(O)c4CC[C@H]3[C@@H]1CC[C@@H]2O` [4-OH-Estradiol, 4-hydroxy-estradiol]: the “Class Input” value is reported as “S (Strong binders to the estrogen receptor were classified as having a log (RBA) over 0.0)”.

As to `CC(C)(c1ccc(O)cc1)c1ccc(O)cc1` [Bisphenol A, 4,4′-isopropylidenediphenol], the “Class Input” value is reported as “M (medium binders to the estrogen receptor were classified as having a log (RBA) of less than or equal to 0.0)”.

`C[C@]12CC[C@H](O)CC1=CC[C@@H]1[C@@H]2CC[C@]2(C)C(=O)CC[C@@H]12` [Dehydroepiandroster-one]: the “Class Input” value is recorded as “M (medium binders to the estrogen receptor were classified as having a log (RBA) of less than or equal to 0.0)”.

Regarding `C/C=C(/C(=C/C)c1ccc(O)cc1)c1ccc(O)cc1` [Dienestrol], the “Class Input” value was “S (Strong binders to the estrogen receptor were classified as having a log (RBA) over 0.0)”.

With `CC[C@H](c1ccc(O)cc1)[C@@H](CC)c1ccc(O)cc1` [Hexestrol], the “Class Input” value was “S (Strong binders to the estrogen receptor were classified as having a log (RBA) over 0.0)”.

In the case of `COc1ccc(C(c2ccc(OC)cc2)C(Cl)(Cl)Cl)cc1` [Methoxychlor], the “Class Input” value is given as “M (medium binders to the estrogen receptor were classified as having a log (RBA) of less than or equal to 0.0)”.

Turning to `C#C[C@]1(O)CC[C@H]2[C@@H]3CCc4cc(O)ccc4[C@H]3[C@@H](OC)C[C@@]21C` [Moxestrol], the “Class Input” value is given as “S (Strong binders to the estrogen receptor were classified as having a log (RBA) over 0.0)”.

Take `C[C@]12CC[C@H]3[C@@H](CCC4=CC(=O)CC[C@@H]43)[C@@H]1CC[C@@H]2O` [Nandrolone]: the “Class Input” value is listed as “M (medium binders to the estrogen receptor were classified as having a log (RBA) of less than or equal to 0.0)”.

Regarding `CC(=O)[C@H]1CC[C@H]2[C@@H]3CCC4=CC(=O)CC[C@]4(C)[C@H]3CC[C@]12C` [Progesterone], the “Class Input” value is listed as “M (medium binders to the estrogen receptor were classified as having a log (RBA) of less than or equal to 0.0)”.

Regarding `C[C@]12CC[C@H]3[C@@H](CCC4=CC(=O)CC[C@@]43C)[C@@H]1CC[C@@H]2O` [Testosterone], the “Class Input” value is on record as “M (medium binders to the estrogen receptor were classified as having a log (RBA) of less than or equal to 0.0)”.

The next experiment concerns estrogen receptor.
Test: not given
The following applies: 107-compound training set; cited from earlier work.
As to `C[C@]12CC[C@@H](O)C[C@@H]1CC[C@@H]1[C@@H]2CC[C@]2(C)[C@@H](O)CC[C@@H]12` [3α-Androstanediol, 5α-Androstane-3α,17β-diol], the “log RBA” value was −2.67.

For `C[C@]12CC[C@H](O)C[C@@H]1CC[C@@H]1[C@@H]2CC[C@]2(C)[C@@H](O)CC[C@@H]12` [3β-Androstanediol, 5α-Androstane-3β,17β-diol], the “log RBA” value is −0.92.

In the case of `CC(C)(c1ccc(O)cc1)c1ccc(O)cc1` [Bisphenol A, 4,4′-isopropylidenediphenol], the “log RBA” value is listed as −2.11.

Consider `C/C=C(/C(=C/C)c1ccc(O)cc1)c1ccc(O)cc1` [Dienestrol], for which the “log RBA” value was 1.57.

Turning to `CC[C@H](c1ccc(O)cc1)[C@@H](CC)c1ccc(O)cc1` [Hexestrol], the “log RBA” value was 2.48.

Regarding `COc1ccc(C(c2ccc(OC)cc2)C(Cl)(Cl)Cl)cc1` [Methoxychlor], the “log RBA” value was −3.2.

On to `C#C[C@]1(O)CC[C@H]2[C@@H]3CCc4cc(O)ccc4[C@H]3[C@@H](OC)C[C@@]21C` [Moxestrol], for which the “log RBA” value is 1.14.

For a further experiment, the target named is T1, alpha (ERα) estrogen receptor (Homo sapiens, UniProt P03372).
T1 sequence (P03372 1-595): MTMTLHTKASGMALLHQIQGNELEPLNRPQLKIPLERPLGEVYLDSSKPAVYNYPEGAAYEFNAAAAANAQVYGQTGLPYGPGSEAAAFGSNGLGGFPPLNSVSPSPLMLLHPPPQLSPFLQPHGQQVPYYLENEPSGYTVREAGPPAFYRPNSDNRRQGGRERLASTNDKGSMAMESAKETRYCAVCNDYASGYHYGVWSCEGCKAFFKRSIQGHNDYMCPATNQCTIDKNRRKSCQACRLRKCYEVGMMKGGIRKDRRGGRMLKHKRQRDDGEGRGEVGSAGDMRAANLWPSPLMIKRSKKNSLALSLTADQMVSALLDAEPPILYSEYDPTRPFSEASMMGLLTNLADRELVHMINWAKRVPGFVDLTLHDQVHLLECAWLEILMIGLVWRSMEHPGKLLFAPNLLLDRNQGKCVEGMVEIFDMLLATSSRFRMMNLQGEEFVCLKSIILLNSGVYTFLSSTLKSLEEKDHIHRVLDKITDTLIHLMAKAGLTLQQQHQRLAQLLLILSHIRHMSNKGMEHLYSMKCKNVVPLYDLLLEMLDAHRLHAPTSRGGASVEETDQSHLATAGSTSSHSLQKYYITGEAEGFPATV
Test: not given
The following applies: cited from earlier work.
Consider `C[C@]12CC[C@@H](O)C[C@@H]1CC[C@@H]1[C@@H]2CC[C@]2(C)[C@@H](O)CC[C@@H]12` [3α-Androstanediol, 5α-Androstane-3α,17β-diol], for which the “Log-(RBA) alpha” value is on record as −1.15.

As for `C[C@]12CC[C@H](O)C[C@@H]1CC[C@@H]1[C@@H]2CC[C@]2(C)[C@@H](O)CC[C@@H]12` [3β-Androstanediol, 5α-Androstane-3β,17β-diol], the “Log-(RBA) alpha” value is 0.48.

For the compound `C[C@]12CC[C@H](O)CC1=CC[C@@H]1[C@@H]2CC[C@]2(C)C(=O)CC[C@@H]12` [Dehydroepiandroster-one], the “Log-(RBA) alpha” value was −1.40.

As to `COc1ccc(C(c2ccc(OC)cc2)C(Cl)(Cl)Cl)cc1` [Methoxychlor], the “Log-(RBA) alpha” value is −2.00.

For the compound `C[C@]12CC[C@H]3[C@@H](CCC4=CC(=O)CC[C@@H]43)[C@@H]1CC[C@@H]2O` [Nandrolone], the “Log-(RBA) alpha” value is −2.00.

Take `C[C@]12CC[C@H]3[C@@H](CCC4=CC(=O)CC[C@@]43C)[C@@H]1CC[C@@H]2O` [Testosterone]: the “Log-(RBA) alpha” value is recorded as −2.10.

Still in this experiment, the particulars now being: log of relative binding affinity, 17-β-estradiol RBA = 100; cited from earlier work.
Take `C[C@]12CC[C@@H]3c4ccc(O)c(O)c4CC[C@H]3[C@@H]1CC[C@@H]2O` [4-OH-Estradiol, 4-hydroxy-estradiol]: the “Log-(RBA) alpha” value was 1.11.

Regarding `CC(C)(c1ccc(O)cc1)c1ccc(O)cc1` [Bisphenol A, 4,4′-isopropylidenediphenol], the “Log-(RBA) alpha” value was −1.30.

Regarding `C/C=C(/C(=C/C)c1ccc(O)cc1)c1ccc(O)cc1` [Dienestrol], the “Log-(RBA) alpha” value is given as 2.35.

As to `CC[C@H](c1ccc(O)cc1)[C@@H](CC)c1ccc(O)cc1` [Hexestrol], the “Log-(RBA) alpha” value was 2.48.

As to `C#C[C@]1(O)CC[C@H]2[C@@H]3CCc4cc(O)ccc4[C@H]3[C@@H](OC)C[C@@]21C` [Moxestrol], the “Log-(RBA) alpha” value is 1.63.

Turning to `CC(=O)[C@H]1CC[C@H]2[C@@H]3CCC4=CC(=O)CC[C@]4(C)[C@H]3CC[C@]12C` [Progesterone], the “Log-(RBA) alpha” value is recorded as −3.50.

The values are drawn from patent US6898533B1, “Methods for predicting the biological, chemical, and physical properties of molecules from their spectral properties” (The United States of America as represented by the …, priority 2000, dated 2005).
